Tests used:
Test in all cases: Antibacterial activity
Type in all cases: cell-based
e. coli = settings: against e. coli
Excerpt: (§1) The fragrance accords can contain antibacterial ingredients described above. See U.S. Pat. No. 6,495,512 for a list of suitable antibacterial ingredients.

e. hirae = settings: against e. hirae
Excerpt: as §1

s. aureos = settings: against s. aureos
Excerpt: as §1

Measured: antibacterial activity

COc1ccc(C)cc1 [1-methoxy-4-methylbenzene]
high antibacterial activity: all assays above

C=CC(C)(O)CCC=C(C)C (stereo not drawn) [3,7-dimethylocta-1,6-dien-3-ol]
high antibacterial activity: all assays above

— patent US11326126B2, “High performing, high impact bloom accord” (International Flavors & Fragrances Inc., priority 2016, dated 2022)
